Data from patent US8957032B2, “Inhibition of gliadin peptides” (Alba Therapeutics Corporation, priority 2008, dated 2015).
Ends that are not written are not given here. * marks the point of attachment. FITC = O=C1OC2(c3ccc(O)cc3Oc3cc(O)ccc32)c2ccc(NC(=S)*)cc21

What was measured:
[1] = test system: CaCO2 cell monolayer; test: Permeability of a CaCO2 cell monolayer to a gliadin fragment; type: cell-based
From the text: (§1) The inventors have discovered that peripheral blood mononuclear cells (PBMCs) secrete signals that increase epithelial monolayer permeability on response to stimulation with lipopolysaccharide […] and pepsin/trypsin treated gliadin (PTG). These secreted signals are present in PBMC culture supernatant, and they increase permeability of CaCO2 cell monolayers to Lucifer yellow when presented to the basolateral aspect of these cells. These permeability changes are inhibited by treatment of the cells with peptide permeability inhibitors of the invention (FIGS. 5A, 5B, 6A, 6B, 7A, 7B, 8A and 8B). The inventors have also discovered that specific peptides within the PTG mixture are capable of crossing epithelial cell monolayers in vitro, and that this peptide specific mechanism can be inhibited by peptide permeability inhibitors of the invention (FIGS. 3 and 4).

[2] = test system: PBMCs; test: Cytokine expression in PBMCs treated with PTG or LPS (ELISA); type: cell-based, human; conditions: PTG 1 mg/ml or LPS 1 μg/ml
Procedure: PBMCs were suspended in RPMI medium supplemented with 5% heat inactivated human AB serum, and 2×10^5 cells were plated in each well of a 96 well plate. Cells were incubated at 37° C. with PTG (1 mg/ml) or LPS (1 μg/ml) in the presence or absence of test compounds being examined for the ability to suppress cytokine production. Supernatant samples were harvested following treatment, and cytokines were assayed by ELISA (R&D Systems).

[3] = test system: intestinal tissue; conditions: ex vivo human tissue and mice; background section; cited from earlier work
[4] = test system: CaCO2 cells; test: Lucifer yellow permeability of CaCO2 cells exposed basolaterally to PBMC culture supernatants; type: cell-based; conditions: donors 00022, 00023, 00064, 00065; for Effect on baseline permeability to Lucifer yellow: control and untreated PBMC supernatant, measured after 72 hours; for Effect on permeability changes induced by LPS treated PBMC supernatant / Effect on permeability changes induced by PTG treated PBMC supernatant: Lucifer yellow measured after 72 hours
Procedure: After formation of tight junctions CaCO2 cells were exposed basolaterally to control supernatant (control), untreated PBMC supernatant (PBMC sup), LPS treated PBMC supernatant (PBMC-LPS) and PTG treated PBMC supernatant (PBMC-PTG). Lucifer yellow permeability was measured after 72 hours (day 3).
After formation of tight junctions CaCO2 cells were exposed basolaterally to PBMC supernatants as described above. […]
as §1

[5] = inhibitor added apically after 48 hours (day 2)
[6] = inhibitor added apically on day 0

Q: With GGVLVQPG [SEQ ID NO:1] as the substance, how does the “Effect on increase in permeability to gliadin peptide PYPQPQLPY (SEQ ID NO:163)” value ([1]; FIG. 3, apical exposure to gliadin peptide, apical treatment with inhibitor) read?
A: Its value is “blocked”.

Q: What about the “Effect on increase in permeability induced by gliadin peptide” value ([1]; FIG. 4, apical exposure to FITC-C6-PYPQPQLPY, 13-mer gliadin peptide SEQ ID NO:164 named in legend) of the same substance?
A: Its value is “blocked”.

Q: And the “Effect on expression of IL-6, IL-8, MIP-1α and Gro-α induced by LPS and PTG” value [2]?
A: Its value is “not reduced”.

Q: And the “Effect on increased expression of GM-CSF and IL-16 induced by LPS and PTG” value [2]?
A: The value was “inhibited”.

Q: What about the “Gliadin induced reduction in intestinal Rt (resistance)” value [3] of the same substance?
A: The value was “inhibits”.

Q: What about the “Peak of F-actin increment induced by gliadin” value [3] of the same substance?
A: Its value is “blocks”.

Q: What about the “Effect on baseline permeability to Lucifer yellow” value [4, 5] of the same substance?
A: Its value is “abolished”.

Q: And the “Effect on baseline permeability to Lucifer yellow” value [4, 6]?
A: Its value is “abolished”.

Q: And the “Effect on permeability changes induced by LPS treated PBMC supernatant” value [4, 5]?
A: Its value is “significantly reduced”.

Q: And the “Effect on permeability changes induced by PTG treated PBMC supernatant” value [4, 5]?
A: The value was “significantly reduced”.

Q: What about the “Effect on permeability changes induced by LPS treated PBMC supernatant” value [4, 6] of the same substance?
A: The value was “no significant effect”.

Q: And the “Effect on permeability changes induced by PTG treated PBMC supernatant” value [4, 6]?
A: Its value is “no significant effect”.

Q: With “PYPQPQLPY (listed as Triticum sp.) [SEQ ID NO:163, gliadin peptide]” as the substance, how does the “Permeability of the monolayer to the gliadin peptide” value ([1]; FIG. 3, apical exposure of the monolayer to the gliadin peptide) read?
A: The value was “increase in permeability”.

Q: For “FITC-C6-PYPQPQLPY ({FITC-C6}-PYPQPQLPY) [gliadin peptide, FITC-labelled, reference compound]”, which “Permeability of the monolayer” value ([1]; FIG. 4, apical exposure of the monolayer to the gliadin peptide) is on record?
A: Its value is “increase in permeability”.
